In PMC6332226, “Potent PPARγ Ligands from Swietenia macrophylla Are Capable of Stimulating Glucose Uptake in Muscle Cells” (Molecules, 2015):

Legend:
[1] = system: differentiated 3T3-L1 adipocyte cells; experiment: mRNA expression of PPARγ and adipogenic markers by quantitative RT-PCR; assay type: cell-based; details: 7 days, 2 µM compound; for expression levels of adipogenic markers (adiponectin, adipsin, PPARγ, GLUT4): 50 nM rosiglitazone or 1 μM insulin, normalized to β-actin, DMSO = 1; for PPARγ mRNA expression, fold elevation: vs DMSO
Description: Figure 5 The analysis of PPARγ and selected adipogenic gene expression in differentiated 3T3-L1 adipocyte cells with quantitative RT-PCR. […] The expression values were normalized against a housekeeping gene, β-actin.
For the gene expression study, mature 3T3-L1 adipocytes were lysed 7 days after the induction of cellular differentiation. The total RNA samples were prepared according to the manufacturer's protocol (TRIzol reagent, Invitrogen Life Technologies, Carlsbad, CA, USA). The mRNA expression of the target genes was measured by quantitative RT-PCR with an iCycler iQ5 PCR Thermal Cycler (Bio-Rad Laboratories, Hercules, CA, USA). The primers for the adipogenesis-related genes, adiponectin, adipsin, GLUT4 and PPARγ, were designed using Primer 3 software (Table 1). Real-time PCR was performed according to the manufacturer’s protocol (SYBR-Green One-Step Quantitative RT-PCR). Briefly, 5 ng of total RNA, 50 nM of each primer, iScript RT enzyme and the universal SYBR Green reaction mix (Bio-Rad Laboratories) were mixed well in a final volume of 30 µL. All the PCR reactions were performed as follows: 1 cycle of 50 °C for 2 min and 95 °C for 10 min, followed by 40 cycles of 95 °C for 15 s and 60 °C for 1 min. The PCR products were subjected to a melting-curve analysis. The expression levels were normalized against a housekeeping gene, β-actin, and the expression levels of the genes in the DMSO treated cells were designated as 1.

[2] = system: 3T3-L1 preadipocyte cells; experiment: Adipocyte differentiation assay, Oil Red O staining of lipid droplets; assay type: cell-based; details: for first appearance of lipid droplets after treatment: 3T3-L1 cells; for induction of 3T3-L1 differentiation into lipid-producing adipocytes: 2–50 µM, lower level than insulin and rosiglitazone; for ORO stained lipid droplets, fold higher than vehicle treated cells: compounds 2–50 µM
Description: Figure 4 The semi-quantification of lipid droplets produced by differentiated 3T3-L1 cells at day 7 after the compound treatment. The quantification was performed by dissolving the cells in isopropanol and measuring the absorbance read out at 510 nm. […] The symbol ** denotes a significant difference at p < 0.01 compared with DMSO (Tukey’s test, n = 3).
3T3-L1 and C2C12 cells were purchased from the American Type Culture Collection (Manassas, VA, USA). The 3T3-L1 and C2C12 cells were maintained in DMEM medium supplemented with 10% (v/v) bovine serum and 10% (v/v) fetal bovine serum (FBS), respectively. The differentiation of adipocytes was initiated two days after the cells reached confluence by adding 0.5 mM isobutyl methylxanthine (IBMX), 1 µM dexamethasone and 1 µg/mL insulin to DMEM containing 10% (v/v) FBS. Two days later, the differentiation medium was replaced by DMEM containing 10% (v/v) FBS and 1 µg/mL insulin. These differentiated cells were stabilized in DMEM + 10% (v/v) FBS for another 2 days. C2C12 myocytes were induced to differentiate by substituting 10% (v/v) FBS with 10% (v/v) horse serum once the cells reached confluence. Fresh differentiation medium was replaced every two days until the myotube formation was complete.
Adipocyte differentiation is one of the major cellular responses upon PPARγ activation. 3T3-L1 pre-adipocyte cells were seeded on 24-well plates at 5 × 10^4 cells per well. Two days after reaching confluence, the cells were triggered to differentiate by insulin (positive control), DMSO (negative control), TZD, and the three natural compounds isolated from S. macrophylla (6OA, DS and Sw). […] For visualization, lipid droplets were stained by Oil Red O (ORO). The trapped ORO between the lipid droplets was then dissolved in absolute isopropanol, and the absorbance of the dissolved ORO was semi-quantitatively measured by a SpectraMax M5 multi-detection microplate reader (Molecular Devices) at a wavelength of 510 nm.

C2C12 muscle cells [3] = experiment: GLUT4 translocation assay (immunofluorescence); assay type: cell-based; details: for GLUT4 translocation to the plasma membrane / time at which GLUT4 translocation occurs after treatment: 2 µM compound
Description: (§1) Figure 6 The compounds affected the distribution of GLUT4 proteins and facilitated glucose uptake in the C2C12 muscle cells. The GLUT4 proteins were visualized via the green fluorescent FITC labeled-GLUT4 antibody. […] The white arrows show the presence of GLUT4 near the plasma membrane, and the red arrows show the presence of GLUT4 within the nucleus. The figures denote the time lapse (m = minutes) after treatment. The images were captured using a LSM710 laser scanning microscope with a 63X oil immersion objective (Carl Zeiss, Oberkochen, Germany); (F) The amount of 2-NBDG uptake in the cells after treatment 6OA, DS and Sw or insulin was quantified at OD 510 nm. The fold increase was plotted against the treated concentration of natural compounds. The symbol * denotes a significant difference at p < 0.05 compared with DMSO (Tukey’s test, n = 6), DMSO = 1.
The differentiated C2C12 muscle cells cultured in 8-well chamber slides were treated with DMSO, insulin and S. macrophylla compounds for 15, 30, 60 and 120 min in DMEM low glucose + 0.1% (w/v) BSA. The cells were then fixed with 4% (v/v) paraformaldehyde, washed with MAXwash^TM washing medium (Active Motif, Tokyo, Japan) and blocked with Maxblock^TM blocking medium (Active Motif). The cells were incubated with the GLUT4 antibody for 16 h at 4 °C and then with the fluorescent conjugated secondary antibody for 2 h at room temperature. 100 µL of Fluoroshield^TM with DAPI (Sigma-Aldrich, St. Louis, MO, USA) was added to each well and mounted with a cover slip for imaging.

C2C12 muscle cells [4] = experiment: Glucose uptake assay with 2-NBDG; assay type: cell-based; details: 2 µM compound, 60 min treatment
Description: as §1
C2C12 cells were grown and differentiated in 96-well culture plates. The differentiated C2C12 muscle cells were treated with DMSO, insulin, and S. macrophylla compounds for 60 min in DMEM + 0.1% (w/v) BSA. After washing three times with Krebs-Ringer Phosphate H (KRPH) buffer + 0.1% (w/v) BSA, the cells were incubated with 100 μM 2-NBDG for 15 min. After washing three times with KRPH buffer + 0.1% (w/v) BSA, the uptake of 2-NBDG was observed under a fluorescence microscope, and the fluorescence of 2-NBDG was measured with a microplate reader (Perkin Elmer, Waltham, MA, USA).

recombinant PPARγ = molecular target: T1, recombinant PPARγ (Homo sapiens, UniProt P37231); experiment: ELISA PPARγ-binding assay (ligand-dependent binding of PPARγ to p300 coactivator); details: highest binding; p300-coated plate, absorbance 405 nm
T1 construct: amino acid positions 107–477 for PPARγ; His tag (pET28a) (N); made in house; host or cells: E. coli BL21
T1 sequence (P37231 107-477 isoform P37231-2): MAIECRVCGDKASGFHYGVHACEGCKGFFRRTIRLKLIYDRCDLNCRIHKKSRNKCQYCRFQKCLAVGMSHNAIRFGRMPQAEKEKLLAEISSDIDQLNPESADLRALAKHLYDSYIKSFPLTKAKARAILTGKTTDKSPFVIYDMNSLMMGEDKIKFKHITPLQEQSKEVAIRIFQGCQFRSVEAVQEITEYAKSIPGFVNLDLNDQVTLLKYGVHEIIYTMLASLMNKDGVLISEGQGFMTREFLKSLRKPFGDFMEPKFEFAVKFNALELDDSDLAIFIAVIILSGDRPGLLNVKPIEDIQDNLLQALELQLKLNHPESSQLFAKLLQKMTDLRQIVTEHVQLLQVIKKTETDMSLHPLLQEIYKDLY
T1 sequence (Q09472 39-221 partner limits assumed): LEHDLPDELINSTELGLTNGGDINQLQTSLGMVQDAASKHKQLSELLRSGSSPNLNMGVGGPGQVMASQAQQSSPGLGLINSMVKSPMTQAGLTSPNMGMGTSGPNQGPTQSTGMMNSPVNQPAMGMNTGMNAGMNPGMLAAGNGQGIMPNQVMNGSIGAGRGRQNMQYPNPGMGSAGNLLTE
Description: The truncated p300 recombinant protein included a specific binding domain, LXXLL, for protein-protein interactions between p300 and PPARγ.
The ELISA binding assay used is based on the principle of binding between the ligand-dependent PPARγ and its coactivator. Briefly, 5 µg of purified recombinant p300, a PPARγ coactivator, was used to coat a 96-well microtitre plate in the presence of coating buffer (150 mM Na2CO3, 350 mM NaHCO3, pH 9.6). The plate was incubated for 2 h at room temperature. Nonspecific binding sites were blocked with 100 µL of blocking buffer [2% (w/v) BSA in 10 mM PBS, pH 7.2] for 2 h at room temperature. The recombinant PPARγ cell lysate was prepared by using the freeze/thaw cell lysis method [37]. […] These mixtures were added to the p300-coated 96-well plate, which was then incubated for 1 h at 37 °C. The presence of the PPARγ ligand led to the formation of a p300-PPARγ-ligand complex. The detection of this complex was performed through the addition of 100 µL of anti-PPARγ antibody (1:1000 dilutions) and incubation for 1 h at room temperature. Subsequently, 100 µL of the AP conjugated donkey anti-goat antibody (1:1000 dilutions) was added into each well, and the plates were at room temperature for 1 h. The pNPP substrate solution (100 µL) was added to each well and incubated for 1 h at room temperature in the dark. Finally, 2.0 N sulphuric acid (50 µL per well) was added to each well to stop the enzymatic reaction. The absorbance at 405 nm was detected with a microplate reader (SpectraMax M5, Molecular Devices, Sunnyvale, CA, USA). Throughout the procedures, the microtitre plate was washed three times with washing buffer [10 mM PBS, pH 7.2, containing 0.1% (v/v) Tween 20] after each incubation step.

diabetic rats = diabetic rats ref 5; cited from earlier work

Compound	expression levels of adipogenic markers (adiponectin, adipsin, PPARγ, GLUT4) [1]	ORO stained lipid droplets, fold higher than vehicle (DMSO) ([2]; 1 µM insulin, day 7) [fold]	first appearance of lipid droplets after treatment [2] [days]	time at which GLUT4 translocation occurs after stimulation (C2C12 muscle cells [3]; 200 nM insulin) [min]	glucose (2-NBDG) uptake (C2C12 muscle cells [4])	PPARγ mRNA expression, fold elevation [1]	fold increase of binding between PPARγ and coactivator compared to vehicle (DMSO) (recombinant PPARγ) [fold]	induction of 3T3-L1 differentiation into lipid-producing adipocytes [2]	ORO stained lipid droplets, fold higher than vehicle treated cells ([2]; day 7)	GLUT4 translocation to the plasma membrane (C2C12 muscle cells [3])	time at which GLUT4 translocation occurs after treatment (C2C12 muscle cells [3]) [min]	elevated cholesterol and triglyceride levels (diabetic rats)
Insulin: known adipocyte differentiation inducer, positive control [reference compound]	significantly increased	4.8	3	15	–	–	–	–	–	–	–	–
COC(=O)C(OC(C)=O)C1C(C)(C)C(OC(C)=O)C2CC3=C4CC(=O)O[C@@H](c5ccoc5)[C@@]4(C)CCC3[C@@]1(C)C2=O (stereo partly shown) [DS, diacetyl swietenolide]	increase	–	–	–	significant increase	five- to six	38	induce 3T3-L1 cells differentiation into lipid-producing adipocytes	1.3–1.6 fold	increase in GLUT4 translocation	≥ 60	–
CN(CCOc1ccc(CC2SC(=O)NC2=O)cc1)c1ccccn1 (stereo not shown) [Rosiglitazone, rosiglitazone, reference compound]	increase	–	5	–	–	–	–	–	–	–	–	–
C/C=C(\C)C(=O)OC1C2C=C3C(CC[C@@]4(C)C3CC(=O)O[C@H]4c3ccoc3)[C@@](C)(C2=O)C(C(O)C(=O)OC)C1(C)C (stereo partly shown) [Sw, swietenine]	increase	–	–	–	significant increase	five- to six	36	induce 3T3-L1 cells differentiation into lipid-producing adipocytes	1.3–1.6 fold	increase in GLUT4 translocation	15	attenuate
COC(=O)C(OC(C)=O)C1C(C)(C)C(O)C2CC3=C4CC(=O)O[C@@H](c5ccoc5)[C@@]4(C)CCC3[C@@]1(C)C2=O (stereo partly shown) [6OA, 6-O-acetylswietenolide]	increase	–	–	–	significant increase	five- to six	50	induce 3T3-L1 cells differentiation into lipid-producing adipocytes	1.3–1.6 fold	increase in GLUT4 translocation	15	–
